From ChEMBL document CHEMBL5625232, “Development of selective class I protein arginine methyltransferase inhibitors through fragment-based drug design approach” (Eur J Med Chem, 2023)
Converted amounts (≈) assume the structure as drawn. The source made the active and inactive calls. The calls are words filed in the database; no cut-off is given here.

Tests used:
[1] = target: T1, Protein arginine N-methyltransferase 9 (Homo sapiens) (UniProt Q6P2P2); test: Displacement of 3H-SAM from human PRMT9 at 10 uM in presence of substrate by SPA assay
T1 sequence (whole entry): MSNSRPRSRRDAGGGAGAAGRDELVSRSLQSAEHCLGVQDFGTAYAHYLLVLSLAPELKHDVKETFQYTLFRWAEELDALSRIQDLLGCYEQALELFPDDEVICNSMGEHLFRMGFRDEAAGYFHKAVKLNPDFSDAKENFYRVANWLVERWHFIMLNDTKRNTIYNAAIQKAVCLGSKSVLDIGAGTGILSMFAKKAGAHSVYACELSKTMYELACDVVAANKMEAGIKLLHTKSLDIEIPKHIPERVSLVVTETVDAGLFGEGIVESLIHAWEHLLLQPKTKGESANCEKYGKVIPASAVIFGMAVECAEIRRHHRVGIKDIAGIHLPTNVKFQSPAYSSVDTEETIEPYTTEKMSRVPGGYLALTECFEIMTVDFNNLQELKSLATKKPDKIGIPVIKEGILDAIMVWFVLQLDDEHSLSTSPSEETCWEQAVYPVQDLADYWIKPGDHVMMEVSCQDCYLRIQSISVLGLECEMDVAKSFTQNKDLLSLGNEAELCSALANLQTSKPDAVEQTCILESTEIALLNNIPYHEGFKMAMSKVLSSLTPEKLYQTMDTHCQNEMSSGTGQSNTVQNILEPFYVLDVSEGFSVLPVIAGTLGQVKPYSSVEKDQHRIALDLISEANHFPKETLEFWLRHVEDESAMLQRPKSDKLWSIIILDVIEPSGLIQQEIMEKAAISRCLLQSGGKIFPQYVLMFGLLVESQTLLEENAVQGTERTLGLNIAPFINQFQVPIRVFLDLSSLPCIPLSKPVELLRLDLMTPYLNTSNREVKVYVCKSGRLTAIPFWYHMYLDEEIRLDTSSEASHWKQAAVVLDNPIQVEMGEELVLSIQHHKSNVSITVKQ

[2] = target: T2, Protein arginine N-methyltransferase 8 (Homo sapiens, UniProt Q9NR22); test: Displacement of 3H-SAM from human PRMT8 at 10 uM in presence of substrate by SPA assay
Target sequence in this assay (Q9NR22 2-394 limits assumed): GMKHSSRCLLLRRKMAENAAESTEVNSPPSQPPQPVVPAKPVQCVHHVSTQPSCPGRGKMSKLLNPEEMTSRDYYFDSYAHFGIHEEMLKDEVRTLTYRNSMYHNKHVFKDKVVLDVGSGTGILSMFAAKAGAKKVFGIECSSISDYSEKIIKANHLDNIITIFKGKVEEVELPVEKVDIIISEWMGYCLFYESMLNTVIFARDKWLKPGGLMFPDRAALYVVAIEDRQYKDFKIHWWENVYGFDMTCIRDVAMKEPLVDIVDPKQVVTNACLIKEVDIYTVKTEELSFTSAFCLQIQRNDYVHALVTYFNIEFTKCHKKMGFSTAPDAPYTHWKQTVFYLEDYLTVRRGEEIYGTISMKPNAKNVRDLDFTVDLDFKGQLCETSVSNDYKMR

[3] = Aqueous solubility of compound at pH 7.4 incubated for 24 hrs by HPLC-UV spectroscopy; assay type: physicochemical; settings: aqueous medium
[4] = target: T2, Protein arginine N-methyltransferase 8; test: Displacement of 3H-SAM from human PRMT8 in presence of substrate by SPA assay
Target sequence in this assay (Q9NR22 whole entry): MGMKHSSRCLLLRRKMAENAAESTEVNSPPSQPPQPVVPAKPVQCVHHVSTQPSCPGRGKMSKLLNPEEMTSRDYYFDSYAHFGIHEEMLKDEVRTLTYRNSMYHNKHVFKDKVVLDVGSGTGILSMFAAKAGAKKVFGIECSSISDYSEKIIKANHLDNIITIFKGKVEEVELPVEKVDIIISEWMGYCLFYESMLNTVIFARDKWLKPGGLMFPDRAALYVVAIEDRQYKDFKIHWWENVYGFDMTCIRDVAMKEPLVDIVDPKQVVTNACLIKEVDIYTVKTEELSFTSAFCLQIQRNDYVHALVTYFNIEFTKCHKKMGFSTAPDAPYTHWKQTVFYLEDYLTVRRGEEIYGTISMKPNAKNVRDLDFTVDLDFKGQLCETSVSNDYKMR

[5] = target: T3, Protein arginine N-methyltransferase 3 (Homo sapiens, UniProt O60678); test: Displacement of 3H-SAM from human PRMT3 in presence of substrate by SPA assay
Target sequence in this assay (O60678 whole entry): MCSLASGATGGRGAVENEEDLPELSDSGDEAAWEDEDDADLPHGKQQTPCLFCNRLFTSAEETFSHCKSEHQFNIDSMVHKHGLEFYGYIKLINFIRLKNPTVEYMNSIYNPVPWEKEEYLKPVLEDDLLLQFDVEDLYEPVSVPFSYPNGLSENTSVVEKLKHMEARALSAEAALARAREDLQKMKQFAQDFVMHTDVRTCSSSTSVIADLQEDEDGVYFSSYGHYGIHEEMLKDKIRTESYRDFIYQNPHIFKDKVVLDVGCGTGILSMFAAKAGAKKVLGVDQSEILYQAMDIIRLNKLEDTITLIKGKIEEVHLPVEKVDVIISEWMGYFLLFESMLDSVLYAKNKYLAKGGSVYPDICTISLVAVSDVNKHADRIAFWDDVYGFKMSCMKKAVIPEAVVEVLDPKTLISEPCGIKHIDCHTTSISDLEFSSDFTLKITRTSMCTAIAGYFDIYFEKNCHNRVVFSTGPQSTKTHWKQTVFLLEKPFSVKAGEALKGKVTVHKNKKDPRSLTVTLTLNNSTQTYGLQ

[6] = target: Protein arginine N-methyltransferase 5 (Homo sapiens) (UniProt O14744); test: Displacement of 3H-SAM from human PRMT5 at 10 uM in presence of substrate by SPA assay
Sequence of Protein arginine N-methyltransferase 5 (Homo sapiens) (O14744 whole entry): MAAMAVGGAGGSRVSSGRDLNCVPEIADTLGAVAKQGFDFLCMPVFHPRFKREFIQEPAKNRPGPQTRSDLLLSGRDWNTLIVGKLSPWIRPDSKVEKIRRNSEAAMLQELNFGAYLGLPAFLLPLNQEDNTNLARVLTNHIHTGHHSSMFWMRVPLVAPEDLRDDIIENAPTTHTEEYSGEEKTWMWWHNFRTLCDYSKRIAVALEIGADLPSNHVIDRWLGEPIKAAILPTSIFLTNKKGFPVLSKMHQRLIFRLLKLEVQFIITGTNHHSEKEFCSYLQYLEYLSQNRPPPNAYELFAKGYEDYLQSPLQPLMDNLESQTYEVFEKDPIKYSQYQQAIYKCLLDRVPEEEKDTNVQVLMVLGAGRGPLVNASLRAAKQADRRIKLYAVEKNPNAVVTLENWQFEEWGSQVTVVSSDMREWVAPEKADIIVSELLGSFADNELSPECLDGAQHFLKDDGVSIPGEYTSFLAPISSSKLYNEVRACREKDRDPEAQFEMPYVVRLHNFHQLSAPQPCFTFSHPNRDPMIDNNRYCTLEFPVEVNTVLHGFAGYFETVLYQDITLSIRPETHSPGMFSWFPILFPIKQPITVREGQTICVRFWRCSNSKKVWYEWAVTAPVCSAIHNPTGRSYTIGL

[7] = target: T4, Protein arginine N-methyltransferase 7 (Homo sapiens) (UniProt Q9NVM4); test: Displacement of 3H-SAM from human PRMT7 at 10 uM in presence of substrate by SPA assay
T4 sequence (whole entry): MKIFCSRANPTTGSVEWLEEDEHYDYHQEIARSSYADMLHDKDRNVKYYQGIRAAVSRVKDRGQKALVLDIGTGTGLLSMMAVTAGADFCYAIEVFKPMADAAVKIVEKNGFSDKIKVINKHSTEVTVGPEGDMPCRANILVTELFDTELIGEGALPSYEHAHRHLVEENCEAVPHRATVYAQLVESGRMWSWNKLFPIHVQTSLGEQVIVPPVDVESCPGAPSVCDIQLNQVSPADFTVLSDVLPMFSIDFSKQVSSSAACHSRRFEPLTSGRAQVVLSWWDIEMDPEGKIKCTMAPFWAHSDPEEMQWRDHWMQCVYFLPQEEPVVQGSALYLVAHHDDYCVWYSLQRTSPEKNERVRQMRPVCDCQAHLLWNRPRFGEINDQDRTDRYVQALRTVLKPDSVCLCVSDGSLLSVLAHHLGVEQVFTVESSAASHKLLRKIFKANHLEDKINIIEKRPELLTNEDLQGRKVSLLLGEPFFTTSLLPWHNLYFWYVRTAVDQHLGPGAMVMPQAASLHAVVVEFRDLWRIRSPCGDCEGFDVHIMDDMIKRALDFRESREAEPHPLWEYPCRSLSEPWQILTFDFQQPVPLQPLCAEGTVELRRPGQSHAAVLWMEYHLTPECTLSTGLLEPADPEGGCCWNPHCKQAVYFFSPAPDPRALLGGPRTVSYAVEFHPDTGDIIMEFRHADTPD

[8] = target: T5, Protein arginine N-methyltransferase 6 (Homo sapiens, UniProt Q96LA8); test: Displacement of 3H-SAM from human PRMT6 at 10 uM in presence of substrate by SPA assay
Target sequence in this assay (Q96LA8 whole entry, looked up): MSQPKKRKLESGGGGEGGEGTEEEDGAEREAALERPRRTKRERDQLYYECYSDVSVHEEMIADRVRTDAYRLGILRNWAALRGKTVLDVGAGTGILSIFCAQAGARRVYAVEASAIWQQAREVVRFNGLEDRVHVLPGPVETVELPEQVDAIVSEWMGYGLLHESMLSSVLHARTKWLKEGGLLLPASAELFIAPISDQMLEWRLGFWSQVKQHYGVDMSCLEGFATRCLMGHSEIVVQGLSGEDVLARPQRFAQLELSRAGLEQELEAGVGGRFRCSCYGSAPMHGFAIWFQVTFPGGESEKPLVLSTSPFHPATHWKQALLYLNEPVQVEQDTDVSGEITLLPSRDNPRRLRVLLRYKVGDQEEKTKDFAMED

[9] = target: T3, Protein arginine N-methyltransferase 3; test: Displacement of 3H-SAM from human PRMT3 at 10 uM in presence of substrate by SPA assay
Target sequence in this assay (O60678 2-531 limits assumed): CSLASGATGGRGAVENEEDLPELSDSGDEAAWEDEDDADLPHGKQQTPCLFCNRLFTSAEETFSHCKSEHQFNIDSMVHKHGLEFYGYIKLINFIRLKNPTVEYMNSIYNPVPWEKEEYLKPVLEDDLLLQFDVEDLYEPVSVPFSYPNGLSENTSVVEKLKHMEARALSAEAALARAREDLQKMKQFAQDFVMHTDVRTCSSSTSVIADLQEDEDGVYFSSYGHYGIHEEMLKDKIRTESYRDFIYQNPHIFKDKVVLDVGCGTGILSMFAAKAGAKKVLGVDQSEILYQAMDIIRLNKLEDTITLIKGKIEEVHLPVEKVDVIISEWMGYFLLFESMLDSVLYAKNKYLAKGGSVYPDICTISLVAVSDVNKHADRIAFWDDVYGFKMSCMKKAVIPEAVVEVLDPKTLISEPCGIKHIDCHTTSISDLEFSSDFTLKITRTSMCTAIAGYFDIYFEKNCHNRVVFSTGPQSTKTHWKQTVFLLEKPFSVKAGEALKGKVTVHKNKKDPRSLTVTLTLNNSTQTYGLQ

[10] = target: T5, Protein arginine N-methyltransferase 6; test: Displacement of 3H-SAM from human PRMT6 in presence of substrate by SPA assay
Target sequence in this assay (Q96LA8 whole entry): as the sequence (Q96LA8 whole entry, looked up) above

[11] = target: T6, Histone-arginine methyltransferase CARM1 (Homo sapiens) (UniProt Q86X55); test: Displacement of 3H-SAM from human PRMT4 at 10 uM in presence of substrate by SPA assay
T6 sequence (whole entry): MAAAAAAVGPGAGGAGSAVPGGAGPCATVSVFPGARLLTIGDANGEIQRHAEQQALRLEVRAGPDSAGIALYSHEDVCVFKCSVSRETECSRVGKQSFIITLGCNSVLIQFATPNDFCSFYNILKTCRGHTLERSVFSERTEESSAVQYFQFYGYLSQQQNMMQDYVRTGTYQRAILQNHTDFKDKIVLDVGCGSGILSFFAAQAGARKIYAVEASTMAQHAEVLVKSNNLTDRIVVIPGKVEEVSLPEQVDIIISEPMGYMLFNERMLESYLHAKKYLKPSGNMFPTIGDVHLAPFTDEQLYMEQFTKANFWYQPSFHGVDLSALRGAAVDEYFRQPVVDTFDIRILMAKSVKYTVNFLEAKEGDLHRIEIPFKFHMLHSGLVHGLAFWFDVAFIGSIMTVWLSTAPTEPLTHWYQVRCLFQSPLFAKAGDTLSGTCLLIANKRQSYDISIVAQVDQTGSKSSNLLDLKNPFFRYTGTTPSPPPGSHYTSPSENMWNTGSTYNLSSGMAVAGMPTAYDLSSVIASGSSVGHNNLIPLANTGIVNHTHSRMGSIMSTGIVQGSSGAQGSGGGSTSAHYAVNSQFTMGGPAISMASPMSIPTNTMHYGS

[12] = target: T7, Histone-arginine methyltransferase CARM1 (Homo sapiens, UniProt Q86X55); test: Displacement of 3H-SAM from human PRMT4 in presence of substrate by SPA assay
T7 sequence (Q86X55 whole entry): T6 sequence (whole entry)

[13] = Lipophilicity, log D of compound in 1-octanol at pH 7.4 incubated for 4 hrs by HPLC-UV analysis; assay type: physicochemical; settings: 1-octanol/aqueous phase

inhibition [1] | inhibition [2] | solubility at 24 h [3] [µg/mL] | IC50 [4] [µM] | IC50 [5] [µM] | inhibition [6] | inhibition [7] | inhibition [8] | inhibition [9] | IC50 [10] [µM] | inhibition [11] | IC50 [12] [µM] | logD at 4 h [13] | Structure (SMILES)
Active | Active | 210 (≈ 501 µM) | 794 | 3570 | Active | Active | Active | Active | 253 | Active | 37 | -2.27 | CNCCN1CC[C@@H](NC(=O)c2ccc3c(Nc4ccc(CN)cc4)ncnc3c2)C1
Active | Active | 187 (≈ 446 µM) | 2430 | 3120 | Active | Active | Active | Active | 703 | Active | 80 | -2.16 | CNCCN1CCC(NC(=O)c2ccc3c(Nc4ccc(CN)cc4)ncnc3c2)C1 (racemic)
Active | Active | – | 823 | 1390 | Active | Active | Active | Active | 436 | Active | 92 | – | CNCCN1CC[C@H](NC(=O)c2ccc3c(Nc4ccc(CN)cc4)ncnc3c2)C1
